The source of these data is patent US20210100777A1, “HEAT SHOCK PROTEIN (HSP) INHIBITION AND MONITORING EFFECTIVENESS THEREOF” (H. LEE MOFFITT CANCER CENTER AND RESEARCH INSTITUTE, INC., priority 2013, published 2021).

Assay [1] concerns vemurafenib sensitive and naïve cell lines. Kind of assay: Cell cycle analysis, propidium iodide flow cytometry. The format is cell-based. The settings on record: 300 nM, 24 hours. Here is the method: FIGS. 15A, 15B, 15C, 15D, 15E, 15F, and 15G show the HSP90 inhibitor XL888 blocks the growth and survival of melanoma cell lines with diverse mechanisms of vemurafenib resistance. FIGS. 15A and 15B are graphs showing growth (%) of matched pairs of vemurafenib naïve and resistant melanoma cell lines and melanoma cell lines with intrinsic resistance. In FIG. 15A, cells were treated with increasing concentrations of vemurafenib (1 nM-10 μM: 72 hrs) before being subject to the MTT assay. […] FIGS. 15C to 15E are bar graphs showing the cell cycle effects of XL888 (300 nM: 24 hours) upon vemurafenib sensitive and naïve cell lines. Cells were fixed, stained with propidium iodide and distributions analyzed by flow cytometry. FIG. 15F-G are bar graphs showing that XL888 induced apoptosis in every model of acquired vemurafenib resistance tested. Cells were treated for either 72 or 144 hours with XL888 (300 nM) followed by Annexin-V. Apoptosis was measured by flow cytometry.

The test system of assay [2] is BIM, Mcl-1 and BMF mRNA in vemurafenib-resistant melanoma cell lines. As to the kind of experiment: Quantitative real-time PCR. The settings on record: 300 nM, 48 hours. (In general: Quantitative PCR measures a nucleic acid by following its amplification.)
Assay [3] concerns HSPs in RPMI-8226 cells. As to the kind of experiment: LC-MRM relative quantification of HSPs after 17-DMAG (Example 2). Type of assay: cell-based, human. The settings on record: for CDC37 Fold Change, LC-MRM / HS90A Fold Change, LC-MRM / HS90B Fold Change, LC-MRM / HSP7C Fold Change, LC-MRM / HSP7E Fold Change, LC-MRM / HSP71 Fold Change, LC-MRM / HSP74 Fold Change, LC-MRM / HSPA5 Fold Change, LC-MRM / HSP90α Fold Change, LC-MRM: RPMI-8226, 100 nM; for CDC37 Fold Change, LC-MRM / HS90A Fold Change, LC-MRM / HS90B Fold Change, LC-MRM / HSP7C Fold Change, LC-MRM / HSP7E Fold Change, LC-MRM / HSP71 Fold Change, LC-MRM / HSP74 Fold Change, LC-MRM / HSPA5 Fold Change, LC-MRM: 24 hrs after treatment vs. control; for HSP90α Fold Change, LC-MRM: 24 hrs vs. control. The protocol:
Cell Culture, Lysis, and HSP Sample Preparation for Mass Spectrometry. RPMI-8226 and 8226/LR5 cells were maintained as previously described (Bellamy et al., Cancer Res. 51:995-1002 (1991); Remily-Wood et al., Proteomics Clin. Appl. 5:383-96 (2011)). The heat shock protein 90 inhibitor, 17-desmethoxy-17-N,N-dimethylaminoethylamino-geldanamycin (17-DMAG), was dissolved in DMSO (100 μM stock). Based on prior IC50 measurements, the RPMI-8226 cells were treated with 100 nM 17-DMAG for 24 hours, and 8226/LR5 cells were treated with 50 nM 17-DMAG. Cells (n=10^6) were lysed using in aqueous 100 mM ammonium bicarbonate containing 8M urea for protein denaturation. Protein concentrations were measured by Bradford assays; consistent aliquots of total protein (380 ng) were injected for LC-MRM, and the same solutions were used for DI-MRM. Digestion, addition of SIS peptides, and mass spectrometry sample preparation were performed as described for standard proteins.
[…] Quantification. For HSP proteins in cell lysate, 184 transitions from 32 peptides (see Table 2) were monitored as previously described (Remily-Wood et al., Proteomics Clin. Appl. 5:383-96 (2011)). Both relative and absolute quantification were calculated from the sum of the peak areas for all detected transitions using Skyline (MacLean et al., Bioinformatics 26:966-8 (2010)) or the combination of MRMer (Martin et al., Mol. Cell Proteomics 7:2270-8 (2008)) and Post-MRMer (http://proteome.moffitt. org).

Assay [4] concerns heat shock proteins (HSPs) in RPMI-8226 multiple myeloma cells. As to the kind of experiment: LC-MRM quantification of HSP expression before and 24 hours after 17-DMAG (Example 1). Type of assay: cell-based, human. The settings on record: 106 nM 17-DMAG. The protocol: Monitoring HSPs in multiple myeloma cells. RPMI-8226 multiple myeloma cells were cultured in suspension as described above with the addition of 100 units/mL penicillin/streptomycin. Stock 17-dimethylaminoethylamino-17-demethoxy-geldanamycin (17-DMAG) was dissolved in DMSO at a concentration of 10 mM. Based on prior IC50 measurements, the RPMI-8226 cells were treated with 106 nM 17-DMAG for 24 hours.
RPMI-8226 cells (n=10^6) were lysed using […] aqueous 8M urea with 100 mM ammonium bicarbonate. Protein concentration was measured by the Bradford assay and 0.38 μg of protein (equivalent to 3,750 cells) was injected for LC-MRM analysis of control and drug-treated samples. The proteins were reduced with 2 mM TCEP, alkylated with 20 mM IAA, and digested overnight in solution with trypsin at 37° C. Corresponding stable-isotope-labeled internal standard peptides were added to the samples after digestion. Then, peptides were extracted using pipette tips packed with C18 reversed-phase resin (Ziptip, Millipore; Billerica, Mass.) and concentrated to dryness by vacuum centrifugation (Speedvac, Thermo), and resuspended in aqueous 2% ACN with 0.1% formic acid prior to MS. LC-MRM was performed as described above. Quantification is achieved by using the sum of the peak areas for all detected transitions using QuanBrowser (Xcalibur, Thermo, San Jose, Calif.) or Skyline. The ratio of peak area of the endogenous peptide over corresponding internal standard was calculated for each peptide in the sample to enable absolute and relative quantification. Relative protein expression after treatment was normalized to the pretreatment control for each cell line and plotted to show the change in expression after drug treatment. Bubble plots were created using the SigmaPlot 10 (SPSS).

Turning to `CC[C@@H](C)Nc1cc(C(=O)N[C@@H]2C[C@H]3CC[C@@H](C2)N3c2ccc(C(=O)C3CC3)cn2)c(C)cc1C(N)=O` [XL888, 5-((R)-sec-butylamino)-N1-((1R,3s,5S)-8-(5-(cyclopropanecarbonyl)pyridin-2-yl)-8-azabicyclo[3.2.1]octan-3-yl)-2-methylterephthalamide], the cell cycle effect result in assay [1] (WM164, M229, M229R, M249, M249R, 1205Lu, WM39) was “G1-phase cell cycle arrest”. In addition, the cell cycle effect result in assay [1] (WM164R, 1205LuR, RPMI 7951) is “G2/M phase cell cycle arrest”. Also, in assay [2], the “BIM mRNA expression” value was “increase in BIM mRNA” and the “Mcl-1 expression at the mRNA level” value is “blocked Mcl-1 expression at the mRNA level”. Besides, in assay [2] (M229R and 1205LuR), the “BMF mRNA expression” value is recorded as “only weakly induced BMF mRNA expression”.

As for `CO[C@H]1/C=C\C=C(/C)C(=O)NC2=CC(=O)C(NCCN(C)C)=C(C[C@@H](C)C[C@H](OC)[C@H](O)[C@@H](C)/C=C(\C)[C@@H]1OC(N)=O)C2=O` [17-DMAG, 17-Dimethylaminoethylamino-17-demethoxygeldanamycin], in assay [3] (Table 6), the “CDC37 Fold Change, LC-MRM” value was 1.33; the “HS90A Fold Change, LC-MRM” value was 2.21; the “HS90B Fold Change, LC-MRM” value is 1.53; the “HSP7C Fold Change, LC-MRM” value is on record as 2.28. In assay [3] (Table 6), the “HSP7E Fold Change, LC-MRM” value is reported as 1.23; the “HSP71 Fold Change, LC-MRM” value was determined as 4.67; the “HSP74 Fold Change, LC-MRM” value was found to be 1.45; the “HSPA5 Fold Change, LC-MRM” value was 2.66. Further, in assay [3] (Table 7), the “CDC37 Fold Change, LC-MRM” value was 1.33; the “HS90A Fold Change, LC-MRM” value is 2.21; the “HS90B Fold Change, LC-MRM” value is recorded as 1.53; the “HSP7C Fold Change, LC-MRM” value stood at 2.28. Further, in assay [3] (Table 7), the “HSP7E Fold Change, LC-MRM” value turned out to be 1.23; the “HSP71 Fold Change, LC-MRM” value is listed as 4.67; the “HSP74 Fold Change, LC-MRM” value amounted to 1.45; the “HSPA5 Fold Change, LC-MRM” value was determined as 2.66. The “HSP90α Fold Change, LC-MRM” value in assay [3] (y3 (Least Interference)) is given as 2.19. The “HSP90α Fold Change, LC-MRM” value in assay [3] (y3-y5 (DI-MRM Interference-Corrected)) was 2.21. For the same compound, the “HSP90α Fold Change, LC-MRM” value in assay [3] (y3-y5 (Selected Transitions)) came out at 2.21. Further, in assay [3] (y3-y6 (DI-MRM Interference-Corrected)), the “HSP90α Fold Change, LC-MRM” value came to 2.21. In addition, the “HSP90α expression increase, LC-MRM” value in assay [3] (RPMI-8226, 24 hours after treatment, same for y3-y6, y3-y5 or just y3) is “approximately 2.2 fold”. For the same compound, the “H90B2 Post-Treatment” value in assay [4] amounted to 25.3 amol/cell. Besides, the “HSPB3 Post-Treatment” value in assay [4] (peptide ADLINNLR) was 0.14 amol/cell. Moreover, the “HSP74 Post-Treatment” value in assay [4] (peptide AFSDPFVEAEK) is reported as 0.89 amol/cell. In addition, in assay [4] (peptide ALLFIPR), the “HS90B Post-Treatment” value is on record as 14.5 amol/cell. Further, the “HS90A Post-Treatment” value in assay [4] (peptide ALLFVPR) turned out to be 20.9 amol/cell. The “HSP72 Post-Treatment” value in assay [4] (peptide EIAEAYLGGK) worked out at 0.39 amol/cell. The “HSP7C Post-Treatment” value in assay [4] (peptide GTLDPVEK) is given as 14.9 amol/cell. Also, the “CDC37 Post-Treatment” value in assay [4] (peptide LQAEAQQLR) came to 0.91 amol/cell. Further, in assay [4] (peptide NQVALNPQNTVFDAK), the “HSP71 Post-Treatment” value is recorded as 0.051 amol/cell. For the same compound, the “GRP78 Post-Treatment” value in assay [4] (peptide VEIIANDQGNR) was 110 amol/cell. In addition, in assay [4] (post- vs pre-treatment), the “CDC37 Ratio” value came to 1.07, the “GRP78 Ratio” value amounted to 2.25, the “H90B2 Ratio” value amounted to 1.57 and the “HS90A Ratio” value was 1.87. For the same compound, in assay [4] (post- vs pre-treatment), the “HS90B Ratio” value was determined as 1.84, the “HSP7C Ratio” value was 1.93, the “HSP71 Ratio” value is 3.95 and the “HSP72 Ratio” value stood at 1.21. Besides, in assay [4] (post- vs pre-treatment), the “HSP74 Ratio” value was found to be 1.23 and the “HSPB3 Ratio” value came out at 1.25.
